{
  "source": "patent US20060292151A1",
  "about": "“L-SIGN polymorphisms and methods involving use of same” (priority 2004, published 2006)",
  "system": "L-SIGN alleles: L-SIGN-4, -5, -7 and -9",
  "sequence (Q9H2X3 250-399 limits assumed)": "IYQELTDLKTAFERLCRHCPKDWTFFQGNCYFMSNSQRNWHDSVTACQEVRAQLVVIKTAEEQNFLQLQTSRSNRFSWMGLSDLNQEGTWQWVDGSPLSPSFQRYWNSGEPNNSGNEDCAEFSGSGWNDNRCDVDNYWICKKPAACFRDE",
  "test": "Inhibition of L-SIGN-mediated trans-infection of Hep3B cells by HCVpp",
  "assay_type": "cell-based, human",
  "conditions": "mannan 20 μg/ml",
  "procedure": "FIG. 9. Inhibition of trans-infection with agents to the CRD of L-SIGN. HeLa or HeLa-SIGN transfectants stably expressing the indicated polymorphic forms of L-SIGN were incubated with mannan (20 μg/ml), anti-CRD mAbs (120604 and 120612, 10 μg/ml), or IgG2a isotype-control IgG (10 μg/ml) prior to addition to HCVpp. Cells were incubated an additional 2 h, washed and combined with Hep3B cells. Cultures were maintained for 48 h prior to lysis and measurement of luciferase activity. The data represent the percent of trans-infection relative to that observed in the absence of inhibitor. The values were calculated as (net RLU in the presence of inhibitor)/(net RLU in the absence of inhibitor)×100, where net RLU represents the difference in RLU values observed between transfected and parental HeLa cells. Negative values are omitted for clarity. The data represent the average of 3 independent measurements. […]\nParental HeLa cells and HeLa-SIGN transfectants (2×10^4) were incubated with 200 μl of viral supernatant for 2 h at 37° C. […] Luciferase activity was measured in cell lysates using the Luciferase Assay System (Promega, Madison, Wis.) according to the manufacturer's instructions. […] Data were analyzed for statistical significance using 2-sided t-tests and a significance level of P<0.05 unless otherwise indicated. […]",
  "data": [
    {"substance": "mannan", "values": [
      {"measurement": "average level of inhibition of trans-infection across the different isoforms", "result": 77, "unit": "%"},
      {"measurement": "level of trans-infection inhibited (range over L-SIGN-4, -5, -7 and -9)", "setting": "30 min before HCVpp, Hep3B co-culture 48 h, luciferase", "result": "47-95%"}
    ]}
  ]
}
